The values that follow come from patent publication US9056835B2, “LPA2 receptor-specific benzoic acid derivatives” (University of Tennessee Research Foundation, priority 2012, dated 2015).

One test has as its target LPA2 (Homo sapiens, UniProt Q9HBW0). In words: Fura-2AM Ca2+ mobilization in LPA2 DKO MEF cells. The settings on record: LPA2 Ca2+ mobilization in DKO MEF cells, mean fluorescence ratio. Further details: expressed in transfected cells; host or cells: mouse embryonic fibroblasts from LPA1/2 double-knockout mice, lentiviral transduction. Type of test: cell-based. Here is the method:
(§1) Fluorescence was read every 3.42 seconds for a total of 70 seconds at Ex/Emλ of 340/510 nm and 380/510 nm. Data (relative fluorescence) was then recorded as a mean fluorescence ratio value of the triplicates for each concentration. Graph Pad Prism version 5.0a was then used to fit a non-linear regression curve in a variable slope model (A) to determine the EC50, Emax, and curve fit (R^2)(B).
Mouse embryonic fibroblast (MEF) cells used in this study isolated from LPA1/2 double knock out (LPA2-DKO) mice {Lin, 2007 #132}. These MEF express LPA4/5/6 receptors endogenously at lower levels but completely lack LPA1/2/3 receptor subtypes. The human LPA2 receptor was reintroduced into these MEF cells by lentiviral transduction, which are designated LPA2 DKO MEF {Lin, 2007 #132}. Empty vector-transduced MEF cells, designates as EV DKO MEF, were used as a control. Cells were cultured in a DMEM supplemented with 10% v/v fetal bovine serum (FBS), 2 mM L-glutamine, 100 U/ml penicillin, and 100 μg/mL streptomycin. During serum starvation, the growth medium was replaced with DMEM containing 0.1% (w/v) BSA.
as §1
In general terms: Calcium flux is commonly read through the fluorescence of an indicator in the cells.

Another test concerns Bax. In words: Immunoblot, Bax translocation. The settings on record: 10 μM. Type of test: cell-based, mouse. Here is the method: (§2) Experiments were performed on vector- and LPA2-transduced MEF cells. To measure caspase 3, 7, 8, or 9 activity and DNA fragmentation, cells were plated in 48-well plates (2×10^4 cells/well). To detect PARP-1 cleavage and Bax translocation, 1.5×10^6 cells were plated in 10-cm dishes and cultured overnight in full growth medium. The next morning, the growth medium was replaced by serum-starvation medium and cells were pretreated for 1 h with LPA (1-10 μM), OTP (1-10 μM), GRI977143 (1-10 μM), or vehicle. Caspase activity, DNA fragmentation, PARP-1 cleavage, and Bax translocation were measured 5 h after incubation with 1.7 μM Adriamycin or 24 h after serum withdrawal.
(§3) To detect ligand-induced ERK1/2 activation, vector- and LPA2-transfected MEF cells were serum starved 3 h before exposure to 1 μM LPA, 1 μM OTP, 10 μM GRI977143, or vehicle for 10 min. For ERK1/2 activation and PARP-1 cleavage measurements, cells were harvested in 1× Laemmli sample buffer and separated using 12% Laemmli SDS-polyacrylamide gels. To assess Bax translocation, cell lysates were separated into cytosolic, mitochondrial, and nuclear fractions using the Cell Fractionation Kit-Standard (MitoSciences; Eugene, Oreg.). […] Samples were boiled for 5 min and loaded onto 12% SDS-polyacrylamide gels. Western blotting was carried out as previously described (Valentine et al., 2010). Primary antibodies against pERK1/2, PARP-1, Bax (Cell Signaling Technology; Beverly, Mass.), actin (Sigma-Aldrich), and anti-rabbit-horseradish peroxidase secondary antibodies (Promega) were used according to the instructions of the manufacturer.

The next test concerns PARP-1. Put plainly: Immunoblot, PARP-1 cleavage. As to conditions: 10 μM. Type of test: cell-based, mouse. Here is the method: as §2
as §3, with “Primary antibodies against pERK1/2, PARP-1, Bax (Cell Signaling Technology; Beverly, Mass.), actin (Sigma-Aldrich), and anti-rabbit-horseradish peroxidase secondary antibodies (Promega) were used according to the instructions of the manufacturer.” left out
(In western blotting, separated proteins are transferred to a membrane and probed.)

LPA2, sequence (Q9HBW0 whole entry): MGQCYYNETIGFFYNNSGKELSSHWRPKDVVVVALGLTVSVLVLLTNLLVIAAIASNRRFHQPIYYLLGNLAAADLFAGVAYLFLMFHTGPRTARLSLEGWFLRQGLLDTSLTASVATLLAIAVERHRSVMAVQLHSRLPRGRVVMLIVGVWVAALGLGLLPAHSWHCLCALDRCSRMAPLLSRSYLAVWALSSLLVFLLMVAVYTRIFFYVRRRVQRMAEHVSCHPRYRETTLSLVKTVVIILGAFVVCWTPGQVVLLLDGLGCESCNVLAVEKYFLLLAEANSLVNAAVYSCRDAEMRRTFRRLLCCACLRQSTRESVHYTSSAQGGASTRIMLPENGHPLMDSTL

On to `CCCCCCCC/C=C\CCCCCCCC(=O)OC[C@@H](O)COP(=O)(O)O` [LPA 18:1, Lysophosphatidic acid (18:1)], for which the “Emax (MFR)” value at LPA2 was 1.2 MFR.

For `O=C(O)c1ccccc1SCCCN1C(=O)c2cccc3cccc(c23)C1=O` [GRI977143], the “Bax translocation to the mitochondria” value with Bax (LPA2-transduced MEF, Adriamycin) is listed as “maintained a high level of Bax in the cytoplasm”. Besides, in the test with Bax (serum withdrawal model), the “cytosolic Bax level” value is on record as “did not detect any change in cytosolic Bax level”. In the test on Bax (vector-transduced MEF, Adriamycin), the Bax translocation entry was “failed to reduce Bax translocation”. In addition, the PARP-1 cleavage entry in the test on PARP-1 (LPA2-transduced MEF, Adriamycin or serum withdrawal) was “reduced PARP-1 cleavage”; in the test on PARP-1 (vector-transduced cells), “not observed”.
